Measurements from patent US12558386B2, “Methods and compositions to modulate antibiotic resistance and gastrointestinal microbiota” (OHIO STATE INNOVATION FOUNDATION, priority 2018, dated 2026).
Values after ≈ are worked out from the molar mass of the structure shown. Read-outs that look alike come from different tables or passages of the source.

Tests used:
E. coli CA-1 = assay: MIC assessment (TREK Sensititre); format: cell-based, Escherichia coli
From the text: Bacterial strains. Multiple Amp^r strains from feces of broiler chickens without antibiotic treatment were recovered on Columbia blood Agar base (Becton, […] Dickinson and Company, Franklin Lakes, NJ) supplemented with 5% defibrinated sheep blood (Thermo Scientific™, Grand Island, NY).
(§1) Minimum inhibition concertation (MIC) assessment. A TREK Sensititre diagnostic system (Thermo scientific, Oakwood Village, OH, USA) was used to assess the AR phenotype and MIC of isolated strains. Protocols to use this system can be found on www.trekds.com. Cation-adjusted Mueller Hinton Broth (Becton, Dickinson and Company, MD, USA) was used as basic medium.

E. coli CA-20 = assay: MIC assessment (TREK Sensititre); format: cell-based, Escherichia coli
Protocol: (§2) Bacterial strains. Multiple Amp^r strains from feces of broiler chickens without antibiotic treatment were recovered on Columbia blood Agar base (Becton, […] Dickinson and Company, Franklin Lakes, NJ) supplemented with 5% defibrinated sheep blood (Thermo Scientific™, Grand Island, NY). The strains were maintained in Columbia broth (Becton Dickinson and Company, Franklin Lakes, NJ), and propagated by aerobic growth at 37° C., and further subjected to strain identification and Minimum Inhibition Concentration (MIC) assessments.
as §1

E. coli CA-4 = assay: MIC assessment (TREK Sensititre); format: cell-based, Escherichia coli
Protocol: as §2, §1

[1] = test system: Lactobacillus crispatus CG-12; assay: MIC assessment (TREK Sensititre); format: cell-based
Protocol: (§3) Multiple commensal bacterial strains from chicken feces were recovered from Columbia blood Agar base (Becton, […] Dickinson and Company, Franklin Lakes, NJ) supplemented with 5% defibrinated sheep blood (Thermo Scientific™, Grand Island, NY), and maintained in Columbia broth (Becton Dickinson and Company, Franklin Lakes, NJ) and propagated by anaerobic growth at 37° C. The strains were subjected to antibiotic susceptibility assessment followed by strain identification.
as §1

Three Amp^r E. coli = assay: MIC assessment, summary for the three strains; format: cell-based, Escherichia coli; details: E. coli CA-1, CA-4 and CA-20 together
Protocol: as §2, §1

CG-12 = assay: Screening of antibiotic susceptible commensal strains on antibiotic agar plates; format: cell-based, Lactobacillus crispatus; details: 16 μg/mL tetracycline, 100 μg/mL erythromycin, 32 μg/mL ampicillin, 152 μg/mL sulfamethoxazole with 8 μg/mL trimethoprim
Protocol: as §3
Screening of antibiotic susceptible commensal strains. Recovered commensal strain isolates (over 1000 colonies) were spotted on Columbia broth (Becton, […] Dickinson and Company, Franklin Lakes, NJ) agar plates containing each of the four antibiotics for rapid assessment of phenotypic resistance profiles. Screened antibiotics included 16 μg/mL tetracycline (Sigma-Aldrich, St. Louis, MO, USA), 100 μg/mL erythromycin (Fisher Scientific, Waltham, MA, USA), 32 μg/mL ampicillin (Sigma-Aldrich), and 152 μg/mL sulfamethoxazole (Sigma-Aldrich) with 8 μg/mL trimethoprim (Sigma-Aldrich).

[2] = test system: poultry fecal/gut microbiota (Proteobacteria, ESBL E. coli); assay: Chicken study, metagenomics assessment #1 of pooled feces (FIG. 5); format: in vivo, chickens; details: Tween 80 treatment (Lanes 6, 8)
From the text: FIGS. 5A and 5B show the impact of probiotic treatment on bacterial population in pooled feces of chickens. FIG. 5A) Phylum level; FIG. 5B) Class level. The treatments include Lane 1 (no, cocktail, no): no ESBL E. coli inoculation for 4 days, then inoculated with probiotic cocktail but no Tween 80; Lane 2 (no; no, no): no E. coli, no probiotics, no Tween 80; Lane 3: (probiotics, E. coli, no): probiotic cocktail for 4 days, followed by E. coli, but no Tween 80); Lane 4 (Yes, CG12, no): E. coli for 4 days, followed by Lb. crispatus (WZ12) for 4 days but no Tween 80; Lane 5 (yes, cocktail, no): E. coli for 4 days, followed by probiotic cocktail for 4 days, no Tween; Lane 6 ((yes, cocktail, yes): E. coli for 4 days, followed by probiotic cocktail for 4 days, with Tween 80; Lane 7 (Yes, no, no): E. coli for 4 days, saline for 4 days (no probiotics no Tween); Lane 8 (yes, no, yes): ESBL E. coli for 4 days, no probiotics but with Tween 80 for 4 days.
Animal Studies. The probiotics as disclosed herein were applied to chickens raised in a poultry facility, with the aim to examine the effectiveness of the treatment phenotypically and genetically (fecal microbiota) and physiologically (chickens); and to adjust receipt and procedure of feeding if necessary.
Treatments effective in modulating gut microbiota. […]

[3] = Escherichia coli, CA1, E. coli CA-1, read-out: MIC
[4] = Escherichia coli, CA20, E. coli CA-20, read-out: MIC
[5] = Escherichia coli, CA4, E. coli CA-4, read-out: MIC
[6] = Lactobacillus crispatus, CG12, L. crispatus CG-12, read-out: MIC

| Molecule | MIC (E. coli CA-1; [3]) | MIC (E. coli CA-20; [4]) | MIC (E. coli CA-4; [5]) | MIC [1, 6] | resistance phenotype from MIC, in words (Three Amp^r E. coli) | also measured |
| --- | --- | --- | --- | --- | --- | --- |
| CO/N=C(\C(=O)N[C@@H]1C(=O)N2C(C(=O)O)=C(CSc3nc(=O)c(=O)[nH]n3C)CS[C@H]12)c1csc(N)n1 [AXO, ceftriaxone] | < 8 µg/mL | 16 µg/mL (≈ 28.9 µM) | < 8 µg/mL | < 8 µg/mL |  | resistance phenotype from MIC, in words (E. coli CA-20; only E. coli CA-20): some resistant |
| oxacillin + 2% NaC [OXA+] |  |  |  |  | high resistance | MIC (E. coli CA-1; E. coli CA-1): >8 µg/mL; MIC (E. coli CA-20; E. coli CA-20): 8 µg/mL; MIC (E. coli CA-4; E. coli CA-4): >8 µg/mL; MIC ([1]; L. crispatus CG-12): <0.25 µg/mL |
| CN[C@H](CC(C)C)C(=O)N[C@H]1C(=O)N[C@@H](CC(N)=O)C(=O)N[C@H]2C(=O)N[C@H]3C(=O)N[C@H](C(=O)N[C@H](C(=O)O)c4cc(O)cc(O)c4-c4cc3ccc4O)[C@H](O)c3ccc(c(Cl)c3)Oc3cc2cc(c3O[C@@H]2O[C@H](CO)[C@@H](O)[C@H](O)[C@H]2O[C@H]2C[C@](C)(N)[C@H](O)[C@H](C)O2)Oc2ccc(cc2Cl)[C@H]1O [VAN, vancomycin] |  |  |  |  | resistant | MIC (E. coli CA-1; Escherichia coli, CA1): > 128 µg/mL; MIC (E. coli CA-20; Escherichia coli, CA20): > 128 µg/mL; MIC (E. coli CA-4; Escherichia coli, CA4): > 128 µg/mL; MIC ([1]; Lactobacillus crispatus, CG12): < 1 µg/mL |
| COc1c(N2CCNC(C)C2)c(F)cc2c(=O)c(C(=O)O)cn(C3CC3)c12 (stereo not drawn) [GAT, gatifloxacin] | < 1 µg/mL | < 1 µg/mL | < 1 µg/mL | 4 µg/mL (≈ 10.7 µM) |  | resistance phenotype from MIC, in words ([1]; L. crispatus CG-12): resistant |
| CO[C@H]1/C=C/O[C@@]2(C)Oc3c(C)c(O)c4c(O)c(c(/C=N/N5CCN(C)CC5)c(O)c4c3C2=O)NC(=O)/C(C)=C\C=C\[C@H](C)[C@H](O)[C@@H](C)[C@@H](O)[C@@H](C)[C@H](OC(C)=O)[C@@H]1C [RIF, rifampin] | 4 µg/mL (≈ 4.86 µM) | 4 µg/mL (≈ 4.86 µM) | > 4 µg/mL | 1 µg/mL (≈ 1.22 µM) |  |  |
| [H]/N=C(/N)N[C@H]1[C@H](O)[C@@H](O)[C@H](O[C@@H]2O[C@@H](C)[C@](O)(C=O)[C@H]2O[C@@H]2O[C@@H](CO)[C@H](O)[C@@H](O)[C@@H]2NC)[C@@H](N/C(N)=N\[H])[C@@H]1O [STR, streptomycin] | < 1000 µg/mL | < 1000 µg/mL | < 1000 µg/mL | < 1000 µg/mL |  |  |
| CC(=O)NC[C@H]1CN(c2ccc(N3CCOCC3)c(F)c2)C(=O)O1 [LZD, linezolid] | > 8 µg/mL | > 8 µg/mL | > 8 µg/mL | 2 µg/mL (≈ 5.93 µM) | resistant |  |
| sulfamethoxazole/trimethoprim [SXT] |  |  |  |  |  | MIC ([1]; L. crispatus CG-12): 2/38; phenotypic susceptibility on antibiotic agar plates (CG-12): susceptible |
| C[C@H]1COc2c(N3CCN(C)CC3)c(F)cc3c(=O)c(C(=O)O)cn1c23 [LEVO, levofloxacin] | < 0.25 µg/mL | < 0.25 µg/mL | < 0.25 µg/mL | > 8 µg/mL |  |  |
| O=C(O)c1cn(C2CC2)c2cc(N3CCNCC3)c(F)cc2c1=O [CIP, ciprofloxacin] |  |  |  | > 2 µg/mL |  | resistance phenotype from MIC, in words ([1]; L. crispatus CG-12): resistant |
| gentamicin |  |  |  |  |  | MIC (E. coli CA-1; E. coli CA-1): 4 µg/mL; MIC (E. coli CA-20; E. coli CA-20): 8 µg/mL; MIC (E. coli CA-4; E. coli CA-4): 4 µg/mL; MIC ([1]; L. crispatus CG-12): 16 µg/mL |
| CC[C@H]1OC(=O)[C@H](C)[C@@H](O[C@H]2C[C@@](C)(OC)[C@@H](O)[C@H](C)O2)[C@H](C)[C@@H](O[C@@H]2O[C@H](C)C[C@H](N(C)C)[C@H]2O)[C@](C)(O)C[C@@H](C)C(=O)[C@H](C)[C@@H](O)[C@]1(C)O [ERY, erythromycin] | > 4 µg/mL | > 4 µg/mL | > 4 µg/mL | < 0.25 µg/mL | resistant | phenotypic susceptibility on antibiotic agar plates (CG-12): susceptible |
| CCC[C@@H]1C[C@@H](C(=O)N[C@@H]([C@H]2O[C@H](SC)[C@H](O)[C@@H](O)[C@H]2O)[C@H](C)Cl)N(C)C1 [CLI, clindamycin] | > 2 µg/mL | > 2 µg/mL | > 2 µg/mL | < 0.12 µg/mL |  |  |
| CCCCCCCC/C=C\CCCCCCCC(=O)OCCOCC(OCCO)C1OCC(OCCO)C1OCCO (stereo not drawn) [Tween 80] |  |  |  |  |  | effect on fecal microbiota [2]: assisted the colonization of Proteobacteria but not the Firmicutes |
| quinupristin/dalfopristin [SYN] |  |  |  |  |  | MIC (E. coli CA-1; E. coli CA-1): >4 µg/mL; MIC (E. coli CA-20; E. coli CA-20): >4 µg/mL; MIC (E. coli CA-4; E. coli CA-4): >4 µg/mL; MIC ([1]; L. crispatus CG-12): 0.25 µg/mL |
| CCCCCCCCCC(=O)N[C@@H](Cc1c[nH]c2ccccc12)C(=O)N[C@H](CC(N)=O)C(=O)N[C@@H](CC(=O)O)C(=O)N[C@@H]1C(=O)NCC(=O)N[C@@H](CCCN)C(=O)N[C@@H](CC(=O)O)C(=O)N[C@H](C)C(=O)N[C@@H](CC(=O)O)C(=O)NCC(=O)N[C@H](CO)C(=O)N[C@@H]([C@H](C)CC(=O)O)C(=O)N[C@@H](CC(=O)c2ccccc2N)C(=O)O[C@@H]1C [DAP, daptomycin] | > 8 µg/mL | > 8 µg/mL | > 8 µg/mL | 4 µg/mL (≈ 2.47 µM) | resistant | resistance phenotype from MIC, in words ([1]; L. crispatus CG-12): resistant |
| CN(C)[C@@H]1C(O)=C(C(N)=O)C(=O)[C@@]2(O)C(O)=C3C(=O)c4c(O)cccc4[C@@](C)(O)[C@H]3C[C@@H]12 [TET, tetracycline] | < 2 µg/mL | < 2 µg/mL | < 2 µg/mL | < 2 µg/mL |  |  |
| penicillin |  |  |  |  | high resistance | MIC (E. coli CA-1; E. coli CA-1): >8 µg/mL; MIC (E. coli CA-20; E. coli CA-20): >8 µg/mL; MIC (E. coli CA-4; E. coli CA-4): >8 µg/mL; MIC ([1]; L. crispatus CG-12): 0.5 µg/mL |
